{
  "source": "patent US8192962B2",
  "about": "“Processes for detecting toxic substances” (Daikin Industries, Ltd., priority 2001, dated 2012)",
  "tested_on": "Genes belonging to other category",
  "test": "DNA chip mRNA expression in yeast, genes belonging to other category (Table 9)",
  "format": "cell-based, Saccharomyces cerevisiae S288C",
  "summary_of_the_method": "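Expression change after 2 h toxicant exposure (growth-inhibiting, sub-lethal) of log-phase S. cerevisiae S288C at 25° C. Oligo-dT-purified mRNA was labeled with Cy3-dUTP or Cy5-dUTP and hybridized >12 h at 65° C. to a genome-wide chip; ratio of scanned fluorescence to control.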",
  "data": [
    {"smiles": "S=C([S-])NCCNC(=S)[S-].[Zn+2]", "note": "[(11), zinc N,N′-ethylenebis(dithiocarbamate)]", "values": [
      {"measurement": "The level of expressed mRNA in the presence of chemical substance/The level of expressed mRNA in the absence of chemical substance", "setting": "yeast gene YJL141C", "value": 1.2},
      {"measurement": "The level of expressed mRNA in the presence of chemical substance/The level of expressed mRNA in the absence of chemical substance", "setting": "yeast gene YJR004C", "value": 0.7},
      {"measurement": "The level of expressed mRNA in the presence of chemical substance/The level of expressed mRNA in the absence of chemical substance", "setting": "yeast gene YJR058C", "value": 1.2},
      {"measurement": "The level of expressed mRNA in the presence of chemical substance/The level of expressed mRNA in the absence of chemical substance", "setting": "yeast gene YJR069C", "value": 0.9},
      {"measurement": "The level of expressed mRNA in the presence of chemical substance/The level of expressed mRNA in the absence of chemical substance", "setting": "yeast gene YJR086W", "value": 1.0},
      {"measurement": "The level of expressed mRNA in the presence of chemical substance/The level of expressed mRNA in the absence of chemical substance", "setting": "yeast gene YKL008C", "value": 1.5},
      {"measurement": "The level of expressed mRNA in the presence of chemical substance/The level of expressed mRNA in the absence of chemical substance", "setting": "yeast gene YKL013C", "value": 1.1},
      {"measurement": "The level of expressed mRNA in the presence of chemical substance/The level of expressed mRNA in the absence of chemical substance", "setting": "yeast gene YKL039W", "value": 1.0},
      {"measurement": "The level of expressed mRNA in the presence of chemical substance/The level of expressed mRNA in the absence of chemical substance", "setting": "yeast gene YKL041W", "value": 1.2},
      {"measurement": "The level of expressed mRNA in the presence of chemical substance/The level of expressed mRNA in the absence of chemical substance", "setting": "yeast gene YKL079W", "value": 1.3},
      {"measurement": "The level of expressed mRNA in the presence of chemical substance/The level of expressed mRNA in the absence of chemical substance", "setting": "yeast gene YKL096W", "value": 3.5},
      {"measurement": "The level of expressed mRNA in the presence of chemical substance/The level of expressed mRNA in the absence of chemical substance", "setting": "yeast gene YKL097W-A", "value": 1.6},
      {"measurement": "The level of expressed mRNA in the presence of chemical substance/The level of expressed mRNA in the absence of chemical substance", "setting": "yeast gene YKL139W", "value": 1.4},
      {"measurement": "The level of expressed mRNA in the presence of chemical substance/The level of expressed mRNA in the absence of chemical substance", "setting": "yeast gene YKL165C", "value": 0.3},
      {"measurement": "The level of expressed mRNA in the presence of chemical substance/The level of expressed mRNA in the absence of chemical substance", "setting": "yeast gene YKL193C", "value": 1.7},
      {"measurement": "The level of expressed mRNA in the presence of chemical substance/The level of expressed mRNA in the absence of chemical substance", "setting": "yeast gene YKL198C", "value": 1.4},
      {"measurement": "The level of expressed mRNA in the presence of chemical substance/The level of expressed mRNA in the absence of chemical substance", "setting": "yeast gene YKR014C", "value": 1.1},
      {"measurement": "The level of expressed mRNA in the presence of chemical substance/The level of expressed mRNA in the absence of chemical substance", "setting": "yeast gene YLR093C", "value": 1.0},
      {"measurement": "The level of expressed mRNA in the presence of chemical substance/The level of expressed mRNA in the absence of chemical substance", "setting": "yeast gene YLR110C", "value": 3.2},
      {"measurement": "The level of expressed mRNA in the presence of chemical substance/The level of expressed mRNA in the absence of chemical substance", "setting": "yeast gene YLR118C", "value": 1.2},
      {"measurement": "The level of expressed mRNA in the presence of chemical substance/The level of expressed mRNA in the absence of chemical substance", "setting": "yeast gene YLR120C", "value": 1.2},
      {"measurement": "The level of expressed mRNA in the presence of chemical substance/The level of expressed mRNA in the absence of chemical substance", "setting": "yeast gene YLR136C", "value": 1.2},
      {"measurement": "The level of expressed mRNA in the presence of chemical substance/The level of expressed mRNA in the absence of chemical substance", "setting": "yeast gene YLR178C", "value": 3.7},
      {"measurement": "The level of expressed mRNA in the presence of chemical substance/The level of expressed mRNA in the absence of chemical substance", "setting": "yeast gene YLR250W", "value": 1.4},
      {"measurement": "The level of expressed mRNA in the presence of chemical substance/The level of expressed mRNA in the absence of chemical substance", "setting": "yeast gene YLR251W", "value": 4.1},
      {"measurement": "The level of expressed mRNA in the presence of chemical substance/The level of expressed mRNA in the absence of chemical substance", "setting": "yeast gene YLR327C", "value": 5.0},
      {"measurement": "The level of expressed mRNA in the presence of chemical substance/The level of expressed mRNA in the absence of chemical substance", "setting": "yeast gene YLR340W", "value": 1.4},
      {"measurement": "The level of expressed mRNA in the presence of chemical substance/The level of expressed mRNA in the absence of chemical substance", "setting": "yeast gene YLR356W", "value": 3.1},
      {"measurement": "The level of expressed mRNA in the presence of chemical substance/The level of expressed mRNA in the absence of chemical substance", "setting": "yeast gene YLR360W", "value": 0.9},
      {"measurement": "The level of expressed mRNA in the presence of chemical substance/The level of expressed mRNA in the absence of chemical substance", "setting": "yeast gene YLR362W", "value": 1.5},
      {"measurement": "The level of expressed mRNA in the presence of chemical substance/The level of expressed mRNA in the absence of chemical substance", "setting": "yeast gene YLR391W", "value": 1.4},
      {"measurement": "The level of expressed mRNA in the presence of chemical substance/The level of expressed mRNA in the absence of chemical substance", "setting": "yeast gene YLR429W", "value": 0.9},
      {"measurement": "The level of expressed mRNA in the presence of chemical substance/The level of expressed mRNA in the absence of chemical substance", "setting": "yeast gene YML055W", "value": 1.4},
      {"measurement": "The level of expressed mRNA in the presence of chemical substance/The level of expressed mRNA in the absence of chemical substance", "setting": "yeast gene YMR004W", "value": 2.5},
      {"measurement": "The level of expressed mRNA in the presence of chemical substance/The level of expressed mRNA in the absence of chemical substance", "setting": "yeast gene YMR091C", "value": 0.9},
      {"measurement": "The level of expressed mRNA in the presence of chemical substance/The level of expressed mRNA in the absence of chemical substance", "setting": "yeast gene YMR092C", "value": 1.2},
      {"measurement": "The level of expressed mRNA in the presence of chemical substance/The level of expressed mRNA in the absence of chemical substance", "setting": "yeast gene YMR094W", "value": 1.0},
      {"measurement": "The level of expressed mRNA in the presence of chemical substance/The level of expressed mRNA in the absence of chemical substance", "setting": "yeast gene YMR104C", "value": 1.1},
      {"measurement": "The level of expressed mRNA in the presence of chemical substance/The level of expressed mRNA in the absence of chemical substance", "setting": "yeast gene YMR112C", "value": 0.9},
      {"measurement": "The level of expressed mRNA in the presence of chemical substance/The level of expressed mRNA in the absence of chemical substance", "setting": "yeast gene YMR214W", "value": 0.7},
      {"measurement": "The level of expressed mRNA in the presence of chemical substance/The level of expressed mRNA in the absence of chemical substance", "setting": "yeast gene YMR219W", "value": 1.5},
      {"measurement": "The level of expressed mRNA in the presence of chemical substance/The level of expressed mRNA in the absence of chemical substance", "setting": "yeast gene YMR226C", "value": 1.4},
      {"measurement": "The level of expressed mRNA in the presence of chemical substance/The level of expressed mRNA in the absence of chemical substance", "setting": "yeast gene YMR238W", "value": 1.2},
      {"measurement": "The level of expressed mRNA in the presence of chemical substance/The level of expressed mRNA in the absence of chemical substance", "setting": "yeast gene YMR255W", "value": 1.2},
      {"measurement": "The level of expressed mRNA in the presence of chemical substance/The level of expressed mRNA in the absence of chemical substance", "setting": "yeast gene YMR275C", "value": 1.1},
      {"measurement": "The level of expressed mRNA in the presence of chemical substance/The level of expressed mRNA in the absence of chemical substance", "setting": "yeast gene YMR276W", "value": 1.9},
      {"measurement": "The level of expressed mRNA in the presence of chemical substance/The level of expressed mRNA in the absence of chemical substance", "setting": "yeast gene YMR314W", "value": 1.8},
      {"measurement": "The level of expressed mRNA in the presence of chemical substance/The level of expressed mRNA in the absence of chemical substance", "setting": "yeast gene YNL006W", "value": 1.1},
      {"measurement": "The level of expressed mRNA in the presence of chemical substance/The level of expressed mRNA in the absence of chemical substance", "setting": "yeast gene YNL007C", "value": 1.3},
      {"measurement": "The level of expressed mRNA in the presence of chemical substance/The level of expressed mRNA in the absence of chemical substance", "setting": "yeast gene YNL039W", "value": 0.4}
    ]}
  ]
}
